Results reported in patent publication US6472348B1, “Pyridone derivatives and herbicides” (Kumiai Chemical Industry Co., Ltd., priority 1996, dated 2002).

Experiments:
barnyardgrass (Ec) [1] = experiment: Test Example 1: herbicidal effects by paddy field soil treatment; format: in vivo; conditions: 100 g of the active ingredient per 10 ares, 21st day after the application, index 0-5 of Table 47;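 further: grade of growth control; 5 = at least 90%; 4 = 70 to 90%; 3 = 50 to 70%; 2 = 30 to 50%; 1 = 10 to 30%; 0 = under 10%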
In short: (§1)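 Greenhouse pot test in flooded paddy soil, dosed at 100 g a.i. per 10 ares; effect scored on day 21.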

bulrush (Sc) = experiment: as above; format: in vivo; conditions: 100 g of the active ingredient per 10 ares, 21st day after the application, index 0-5 of Table 47;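 further: grade of growth control; 5 = at least 90%; 4 = 70 to 90%; 3 = 50 to 70%; 2 = 30 to 50%; 1 = 10 to 30%; 0 = under 10%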
In short: as §1

monochoria (Mo) = experiment: as above; format: in vivo; conditions: 100 g of the active ingredient per 10 ares, 21st day after the application, index 0-5 of Table 47;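 further: grade of growth control; 5 = at least 90%; 4 = 70 to 90%; 3 = 50 to 70%; 2 = 30 to 50%; 1 = 10 to 30%; 0 = under 10%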
In short: as §1

Digitaria ciliaris (Di) = experiment: Test Example 2: herbicidal effects by upland field soil treatment; format: in vivo; conditions: 100 g of the active ingredient per 10 ares, 21st day after the application, index 0-5 of Table 47;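 further: grade of growth control; 5 = at least 90%; 4 = 70 to 90%; 3 = 50 to 70%; 2 = 30 to 50%; 1 = 10 to 30%; 0 = under 10%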
Description: (§2) (Test on Herbicidal Effects by Upland Field Soil Treatment)

barnyardgrass (Ec) [2] = experiment: as above; format: in vivo; conditions: 100 g of the active ingredient per 10 ares, 21st day after the application, index 0-5 of Table 47
Description: as §2

[3] = system: common lambsquarters (Ch); experiment: as above; format: in vivo; conditions: 100 g of the active ingredient per 10 ares, 21st day after the application, index 0-5 of Table 47
Description: as §2

pale smartweed (Po) [4] = experiment: as above; format: in vivo; conditions: 100 g of the active ingredient per 10 ares, 21st day after the application, index 0-5 of Table 47
Description: as §2

rice flatsedge (Ci) [5] = experiment: as above; format: in vivo; conditions: 100 g of the active ingredient per 10 ares, 21st day after the application, index 0-5 of Table 47
Description: as §2

slender amaranth (Am) [6] = experiment: as above; format: in vivo; conditions: 100 g of the active ingredient per 10 ares, 21st day after the application, index 0-5 of Table 47
Description: as §2

Diaitaria ciliaris (Di) [7] = experiment: Test Example 3: herbicidal effects by upland field foliage treatment; format: in vivo; design: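 grade of growth control; 5 = at least 90%; 4 = 70 to 90%; 3 = 50 to 70%; 2 = 30 to 50%; 1 = 10 to 30%; 0 = under 10%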; conditions: 100 g of the active ingredient per 10 ares, evaluated on the 14th day after treatment
In short: (§3)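 Scoring used a standard effect scale on the 14th day post-treatment, with plants held in a greenhouse throughout. Foliar application was made to weeds raised from seed in sand-filled pots for 2 weeks.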

barnyardgrass (Ec) [8] = experiment: as above; format: in vivo; design: scale not given here; conditions: 100 g of the active ingredient per 10 ares, evaluated on the 14th day after treatment
In short: as §3

[9] = system: common lambsquarters (Ch); experiment: as above; format: in vivo; design: scale not given here; conditions: 100 g of the active ingredient per 10 ares, evaluated on the 14th day after treatment
In short: as §3

pale smartweed (Po) [10] = experiment: as above; format: in vivo; design: scale not given here; conditions: 100 g of the active ingredient per 10 ares, evaluated on the 14th day after treatment
In short: as §3

rice flatsedge (Ci) [11] = experiment: as above; format: in vivo; design: scale not given here; conditions: 100 g of the active ingredient per 10 ares, evaluated on the 14th day after treatment
In short: as §3

slender amaranth (Am) [12] = experiment: as above; format: in vivo; design: scale not given here; conditions: 100 g of the active ingredient per 10 ares, evaluated on the 14th day after treatment
In short: as §3

wheat (Tr) = experiment: Test Example 9: crop plant selectivity by upland field foliage treatment (wheat), phytotoxicity; conditions: dose 1.6 g ai/10a, 14th day after treatment
In short: (§4)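 Wheat and weeds sown in sand-filled pots, grown 2 weeks in a greenhouse, then foliage-treated. Herbicidal effect and crop phytotoxicity were scored 14 days after treatment against a rating scale.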

China jute (Ab) [13] = experiment: Test Example 9: crop plant selectivity by upland field foliage treatment (wheat), herbicidal effects; format: in vivo; design: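 grade of growth control; 5 = at least 90%; 4 = 70 to 90%; 3 = 50 to 70%; 2 = 30 to 50%; 1 = 10 to 30%; 0 = under 10%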; conditions: dose 1.6 g ai/10a, 14th day after treatment
In short: as §4

[14] = system: common lambsquarters (Ch); experiment: as above; format: in vivo; design: scale not given here; conditions: dose 1.6 g ai/10a, 14th day after treatment
In short: as §4

pale smartweed (Po) [15] = experiment: as above; format: in vivo; design: scale not given here; conditions: dose 1.6 g ai/10a, 14th day after treatment
In short: as §4

slender amaranth (Am) [16] = experiment: as above; format: in vivo; design: scale not given here; conditions: dose 1.6 g ai/10a, 14th day after treatment
In short: as §4

soybean (Gl) = experiment: Test Example 10: crop plant selectivity by upland field foliage treatment (soybean), phytotoxicity; conditions: dose 1.6 g ai/10a, 14th day after treatment
Experimental: (§5) (Test on Crop Plant Selectivity by Upland Field Foliage Treatment)
(§6) In a plastic pot (surface area: 600 cm^2) filled with sand, soybean (Gl), pale smartweed (Po), slender amaranth (Am), common lambsquarters (Ch) and China jute (Ab) were sown and cultured in a green house for 2 weeks. […] The plants were then cultured in a green house, and the evaluation of the herbicidal effects and phytotoxicity was conducted on the 14th day after the treatment in accordance with the standards as identified in Table 47.

China jute (Ab) [17] = experiment: Test Example 10: crop plant selectivity by upland field foliage treatment (soybean), herbicidal effects; format: in vivo; conditions: dose 1.6 g ai/10a, 14th day after treatment
Experimental: as §5, §6

[18] = system: common lambsquarters (Ch); experiment: as above; format: in vivo; conditions: dose 1.6 g ai/10a, 14th day after treatment
Experimental: as §5, §6

pale smartweed (Po) [19] = experiment: as above; format: in vivo; conditions: dose 1.6 g ai/10a, 14th day after treatment
Experimental: as §5, §6

slender amaranth (Am) [20] = experiment: as above; format: in vivo; conditions: dose 1.6 g ai/10a, 14th day after treatment
Experimental: as §5, §6

corn (Ze) = experiment: Test Example 11: crop plant selectivity by upland field foliage treatment (corn), phytotoxicity; conditions: upland field foliage treatment, dose 1.6 g ai/10a, 14th day after treatment
In short: (§7)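 Corn and the weed species were sown together in sand-filled pots and grown in a greenhouse for 2 weeks before foliar treatment. Herbicidal effect was scored on day 14 after treatment against a graded standard scale, with corn phytotoxicity scored alongside.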

China jute (Ab) [21] = experiment: Test Example 11: crop plant selectivity by upland field foliage treatment (corn), herbicidal effects; format: in vivo; design: scale not given here; conditions: upland field foliage treatment (corn test), dose 1.6 g ai/10a, 14th day after treatment
In short: as §7

[22] = system: common lambsquarters (Ch); experiment: as above; format: in vivo; design: scale not given here; conditions: upland field foliage treatment (corn test), dose 1.6 g ai/10a, 14th day after treatment
In short: as §7

pale smartweed (Po) [23] = experiment: as above; format: in vivo; design: scale not given here; conditions: upland field foliage treatment (corn test), dose 1.6 g ai/10a, 14th day after treatment
In short: as §7

slender amaranth (Am) [24] = experiment: as above; format: in vivo; design: scale not given here; conditions: upland field foliage treatment (corn test), dose 1.6 g ai/10a, 14th day after treatment
In short: as §7

cotton (Go) = experiment: Test Example 4: crop plant selectivity by upland field soil treatment (cotton), phytotoxicity; format: in vivo; design: scale not given here; conditions: evaluated 21st day after application
In short: (§8)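 Upland soil-treatment selectivity test: scoring on day 21 post-application in a greenhouse, rating crop phytotoxicity on cotton and herbicidal effect on co-sown weeds. Seeds were sown in sand-filled pots and covered with soil before treatment.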

Diaitaria ciliaris (Di) [25] = experiment: Test Example 4: crop plant selectivity by upland field soil treatment (cotton), herbicidal effects; format: in vivo; conditions: evaluated 21st day after application
Experimental: (Test on Crop Plant Selectivity by Upland Field Soil Treatment)
In a plastic pot (surface area: 600 cm^2) filled with sand, cotton (Go), Diaitaria ciliaris (Di), green foxtail (Se), pale smartweed (Po), slender amaranth (Am), common lambsquarters (Ch) and China jute (Ab) were sown and covered with soil. […] The plants were then cultured in a green house, and the evaluation of the herbicidal effects and phytotoxicity was conducted on the 21st day after the application in accordance with the standards as identified in Table 47. Symbol—represents “not tested”.

China jute (Ab) [26] = experiment: as above; format: in vivo; design: scale not given here; conditions: evaluated 21st day after application
In short: as §8

[27] = system: common lambsquarters (Ch); experiment: as above; format: in vivo; design: scale not given here; conditions: evaluated 21st day after application
In short: as §8

green foxtail (Se) = experiment: as above; format: in vivo; design: scale not given here; conditions: dose 6.3 g ai/10 a, evaluated 21st day after application
In short: as §8

pale smartweed (Po) [28] = experiment: as above; format: in vivo; design: scale not given here; conditions: evaluated 21st day after application
In short: as §8

slender amaranth (Am) [29] = experiment: as above; format: in vivo; design: scale not given here; conditions: evaluated 21st day after application
In short: as §8

Structure (SMILES)	Herbicidal effects Ec (barnyardgrass (Ec) [1])	Herbicidal effects Sc (bulrush (Sc))	Herbicidal effects Mo (monochoria (Mo))	Herbicidal effects Di (Digitaria ciliaris (Di))	Herbicidal effects Ec (barnyardgrass (Ec) [2])	Herbicidal effects Ch [3]	Herbicidal effects Po (pale smartweed (Po) [4])	Herbicidal effects Ci (rice flatsedge (Ci) [5])	Herbicidal effects Am (slender amaranth (Am) [6])	Herbicidal effects Di (Diaitaria ciliaris (Di) [7])	Herbicidal effects Ec (barnyardgrass (Ec) [8])	Herbicidal effects Ch [9]	Herbicidal effects Po (pale smartweed (Po) [10])	Herbicidal effects Ci (rice flatsedge (Ci) [11])	Herbicidal effects Am (slender amaranth (Am) [12])	also measured
COCSc1cc(-c2ccc(C(F)(F)F)n(C)c2=O)c(Cl)cc1Cl [1-126]	5	5	5	5	5	5	5	5	5	5	5	5	5	5	5	Phytotoxicity Tr (wheat (Tr)): 2; Herbicidal effects Ab (China jute (Ab) [13]): 5; Herbicidal effects Ch [14]: 5; Herbicidal effects Po (pale smartweed (Po) [15]): 5; Herbicidal effects Am (slender amaranth (Am) [16]): 5; Phytotoxicity Gl (soybean (Gl)): 2; Herbicidal effects Ab (China jute (Ab) [17]): 5; Herbicidal effects Ch [18]: 5; Herbicidal effects Po (pale smartweed (Po) [19]): 5; Herbicidal effects Am (slender amaranth (Am) [20]): 5; Phytotoxicity Ze (corn (Ze)): 2; Herbicidal effects Ab (China jute (Ab) [21]): 5; Herbicidal effects Ch [22]: 5; Herbicidal effects Po (pale smartweed (Po) [23]): 5; Herbicidal effects Am (slender amaranth (Am) [24]): 5
CC(C)Oc1cc(-c2ccc(C(F)(F)F)n(C)c2=O)c(F)cc1Cl [Compound No. 1-14]	5	5	5	5	5	5	5	5	5	5	5	5	5	5	5	Phytotoxicity Go (cotton (Go); dose 1.6 g ai/10 a): 0; Phytotoxicity Go (cotton (Go); dose 6.3 g ai/10 a): 0; Herbicidal effects Di (Diaitaria ciliaris (Di) [25]; dose 1.6 g ai/10 a): 5; Herbicidal effects Di (Diaitaria ciliaris (Di) [25]; dose 6.3 g ai/10 a): 5; Herbicidal effects Ab (China jute (Ab) [26]; dose 1.6 g ai/10 a): 4; Herbicidal effects Ab (China jute (Ab) [26]; dose 6.3 g ai/10 a): 5; Herbicidal effects Ch ([27]; dose 1.6 g ai/10 a): 5; Herbicidal effects Ch ([27]; dose 6.3 g ai/10 a): 5; Herbicidal effects Se (green foxtail (Se)): 5; Herbicidal effects Po (pale smartweed (Po) [28]; dose 1.6 g ai/10 a): 5; Herbicidal effects Po (pale smartweed (Po) [28]; dose 6.3 g ai/10 a): 5; Herbicidal effects Am (slender amaranth (Am) [29]; dose 1.6 g ai/10 a): 5; Herbicidal effects Am (slender amaranth (Am) [29]; dose 6.3 g ai/10 a): 5
